Where two headings read alike, the source gives them in different places.
Legend:
[1] = Form change on drying under vacuum (XRPD wet vs dry, thermal cycling experiments); format: physicochemical; settings: dried at ambient temperature under vacuum for 2 h
Procedure: Additional solvent is added if necessary. Mixture is thermally cycled between 4° and 5° C. with 0.1° C./min cooling and heating rates and 1 h holds at 40 and 5° C. After 21 h cycling, additional solvent is added if thick slurry is observed and anti-solvent (heptane) is added if clear solution is observed. After a further 26 h thermal cycling, observations are recorded at 5° C. Material is isolated by centrifugation if necessary and analyzed by XRPD. […] XRPD analysis is repeated.

[2] = Dynamic vapour sorption (DVS) analysis; format: physicochemical
Procedure: Approximately 10-20 mg of sample is placed into a mesh vapour sorption balance pan and loaded into a DVS Advantage dynamic vapour sorption balance by Surface Measurement Systems. The sample is subjected to a ramping profile from 40-90% relative humidity (RH) at 10% increments, maintaining the sample at each step until a stable weight has been achieved (dm/dt 0.004%, minimum step length 30 minutes, maximum step length 500 minutes) at 25° C. After completion of the sorption cycle, the sample is dried using the same procedure to 0% RH and then a second sorption cycle back to 40% RH. Two cycles are performed. The weight change during the sorption/desorption cycles are plotted, allowing for the hygroscopic nature of the sample to be determined. XRPD analysis is then carried out on any solid retained.
A dynamic vapour sorption analysis of Crystalline Form 1 is in FIG. 4. […] There is a loss of 1.9 wt. % on the first desorption cycle. There is an uptake of 1.1 wt. % (0.3 equivalents water) on the second sorption between 0 and 90% RH, followed by a loss of about 1.25 wt. % on desportion. There is a loss of 1.2 wt. % difference from the input to the end of the experiment. […] Crystalline Form 1 remains as the bulk form.

[3] = DVS, 25° C., between 0 and 90% RH

| Structure (SMILES) | form after drying [1] | uptake on the second sorption [2, 3] [wt. %] | uptake on the second sorption, equivalents water [2, 3] [equivalents water] | loss on the first desorption cycle ([2]; DVS, 25° C., first desorption cycle) [wt. %] | mass change on the first sorption cycle ([2]; DVS, 25° C., first sorption cycle) | loss on desorption after second sorption ([2]; DVS, 25° C., second desorption) | loss, difference from the input to the end of the experiment ([2]; DVS, 25° C., two cycles) [wt. %] | XRPD post-DVS ([2]; solid retained after DVS) | HPLC-CAD Purity (% w/w) (7 day stability, 40° C./75% RH) | HPLC-CAD Purity (% w/w) (7 day stability, 80° C.) | HPLC-CAD Purity (% w/w) (7 day stability, Ambient Light) | XRPD (7 day stability, Ambient Light) | stability under stressed conditions (summary statement referring to DVS and storage data in Example 6) |
| --- | --- | --- | --- | --- | --- | --- | --- | --- | --- | --- | --- | --- | --- |
| CC[C@H]1[C@@H](O)[C@@H]2[C@H]([C@@H](O)C[C@]3(C)[C@@H]([C@H](C)CCC(=O)O)CC[C@@H]23)[C@@]2(C)CC[C@@H](O)C[C@@H]12 [Crystalline Form 2, 3α,7α,11β-trihydroxy-6α-ethyl-5β-cholan-24-oic acid] | converts to Form 3 |  |  |  |  |  |  |  |  |  |  |  |  |
| CC[C@H]1[C@@H](O)[C@@H]2[C@H]([C@@H](O)C[C@]3(C)[C@@H]([C@H](C)CCC(=O)O)CC[C@@H]23)[C@@]2(C)CC[C@@H](O)C[C@@H]12 [Crystalline Form 1, 3α,7α,11β-trihydroxy-6α-ethyl-5β-cholan-24-oic acid] |  | 1.1 | 0.3 | 1.9 | initial mass loss on the first sorption cycle before a slight uptake is observed | about 1.25 wt. % | 1.2 | slight loss of crystallinity | 97.1 | 96.4 | 97.5 | 1^ | stable under stressed conditions |

— patent publication US20260274886A1, “CRYSTALLINE FORMS OF A FARNESOID X RECEPTOR AGONIST” (ALFASIGMA S.P.A., priority 2023, published 2026)
